Experimental data taken from the supplement of paper PMC11061612.

Columns and labels:
Assay in all cases: Bliss excess, mean over the matrix (fraction); higher = more synergy
[1] = system: SNU-398 (Hepatocellular Carcinoma)
Method in brief: (§1)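 Cell lines grown in DMEM/F12 or RPMI with 10% FBS were plated in 1536-well plates and held 24 hours at 37°C, 5% CO2 before 72 hours of exposure to two-drug dose matrices, with DMSO typically at 0.2%. CellTiter-Glo 2.0 luminescence gave viability, which was converted to inhibition. Vehicle wells were set to 0 and blank wells to 1. Combination Emax is the second-highest inhibition in the matrix, and Bliss excess is the observed combination effect minus the expected EA + EB − EA·EB, where EA and EB are the single-agent effects.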

[2] = system: NCI-H520 (Squamous Cell Lung Carcinoma)
Method in brief: as §1

[3] = system: NCI-H3122 (Lung Adenocarcinoma)
Method in brief: as §1

[4] = system: KP-3 (Pancreatic Carcinoma)
Method in brief: as §1

[5] = system: RD (Rhabdomyosarcoma)
Method in brief: as §1

[6] = system: KMS-12-BM (Plasma Cell Myeloma)
Method in brief: as §1

[7] = system: DAN-G (Pancreatic Carcinoma)
Method in brief: as §1

[8] = system: KY821 (Acute Myeloid Leukemia)
Method in brief: as §1

[9] = system: ST486 (Burkitt's Lymphoma)
Method in brief: as §1

[10] = system: MOG-G-CCM (Low Grade Glioma)
Method in brief: as §1

[11] = system: HCC1187 (Breast Carcinoma)
Method in brief: as §1

[12] = system: NCI-H929 (Plasma Cell Myeloma)
Method in brief: as §1

[13] = system: RPMI-8226 (Plasma Cell Myeloma)
Method in brief: as §1

[14] = system: HCC1419 (Breast Carcinoma)
Method in brief: as §1

[15] = system: MOLM-13 (Acute Myeloid Leukemia)
Method in brief: as §1

[16] = system: NCI-H661 (Non-Small Cell Lung Carcinoma)
Method in brief: as §1

[17] = system: 8505C (Thyroid Gland Carcinoma)
Method in brief: as §1

[18] = system: DMS-114 (Small Cell Lung Carcinoma)
Method in brief: as §1

[19] = system: NCCIT (Other Solid Carcinomas)
Method in brief: as §1

[20] = system: SJSA-1 (Osteosarcoma)
Method in brief: as §1

SMILES	Bliss excess [1]	Bliss excess [2]	Bliss excess [3]	Bliss excess [4]	Bliss excess [5]	Bliss excess [6]	Bliss excess [7]	Bliss excess [8]	Bliss excess [9]	Bliss excess [10]	Bliss excess [11]	Bliss excess [12]	Bliss excess [13]	Bliss excess [14]	Bliss excess [15]	Bliss excess [16]	Bliss excess [17]	Bliss excess [18]	Bliss excess [19]	Bliss excess [20]
COc1nnc2ccc(N3CCC(c4ccc(OCCN5CCN(C)C(=O)[C@H]5C)cc4)CC3)nn12 [AZD5153] + C=CCn1c(=O)c2cnc(Nc3ccc(N4CCN(C)CC4)cc3)nc2n1-c1cccc(C(C)(C)O)n1 [AZD1775] (first compound max 1 µM, partner max 1 µM)	-0.0315	-0.0115	-0.0461	0.0038	-0.0171	-0.0243	-0.0496	-0.0266	-0.0492	-0.0646	-0.0172	-0.0551	-0.0059	-0.0724	-0.0225	-0.019	0.0074	-0.0367	-0.0858	-0.0313
Cc1c2c(nn1C)CSCc1cc(n(C)n1)CSc1cc(c3ccccc3c1)OCCCc1c(C(=O)O)n(C)c3c-2c(Cl)ccc13 [AZD5991] + Cn1cnc2c(F)c(Nc3ccc(Br)cc3Cl)c(C(=O)NOCCO)cc21 [Selumetinib] (first compound max 1 µM, 7x7, partner max 3 µM)	0.0354	-0.0116	-0.0255	-0.0378	0.039	-0.0124	0.0588	0.0044	0.07	-0.0241	-0.0139	0.0275	0.0045	0.0366	0.0409	-0.0169	0.0319	-0.0317	0.0003	-0.0733
Cc1cc2ncnn2cc1Nc1ncc2c(n1)n(C1CCOCC1)c(=O)n2C [AZD7648] + CN(C)CCCOc1ccc(-c2ccc3ncc4c(c3c2)n(C2CCOCC2)c(=O)n4C)cn1 [AZD0156] (first compound max 10 µM, 7x7, partner max 1 µM)	-0.0273	0.0833	-0.006	0.0074	-0.0142	0.0032	-0.0168	0.0429	-0.0071	-0.0609	-0.0086	-0.0727	0.0171	-0.0515	0.0085	0.0202	-0.0003	-0.0268	-0.0105	-0.0385
CCN(CCO)CCCOc1ccc2c(Nc3cc(CC(=O)Nc4cccc(F)c4)[nH]n3)ncnc2c1 [AZD2811] + C=CCn1c(=O)c2cnc(Nc3ccc(N4CCN(C)CC4)cc3)nc2n1-c1cccc(C(C)(C)O)n1 [AZD1775] (first compound max 1 µM, partner max 1 µM)	0.0295	-0.108	-0.0512	-0.036	-0.0222	0.122	-0.0144	0.0868	-0.0925	-0.0178	-0.0086	-0.0671	-0.0172	-0.0545	-0.0698	-0.0029	-0.0071	-0.0129	-0.0037	-0.0109
COc1cccc(OCCCN)c1-c1cc(Nc2cnc(C#N)cn2)n[nH]1 [Prexasertib] + C[C@@H]1COCCN1C2=NC(=NC(=C2)C3(CC3)[S@](=N)(=O)C)C4=C5C=CNC5=NC=C4 [AZD6738] (first compound max 1 µM, 7x7, partner max 10 µM)	0.026	-0.0481	0.0704	0.0162	0.0085	-0.0071	-0.0309	-0.0129	-0.0336	-0.0254	0.0754	-0.0081	-0.006	-0.0473	-0.0051	-0.0655	-0.0075	0.0485	0.011	0.0188
Cn1cnc2c(F)c(Nc3ccc(Br)cc3Cl)c(C(=O)NOCCO)cc21 [Selumetinib] + CC(C)n1c(=O)n(C)c2cnc3cc(F)c(-c4ccc(OCCCN5CCCCC5)nc4)cc3c21 [AZD1390] (first compound max 10 µM, 7x7, partner max 0.3 µM)	-0.053	-0.0486	0.0111	-0.0456	-0.0405	0.0032	-0.0484	0.0169	-0.0391	-0.0476	0.0068	0.0105	0.0158	-0.0426	-0.0306	-0.0559	-0.0717	-0.0191	-0.041	-0.042
COc1cccc(OCCCN)c1-c1cc(Nc2cnc(C#N)cn2)n[nH]1 [Prexasertib] + CCc1c2c(nc3ccc(O)cc13)-c1cc3c(c(=O)n1C2)COC(=O)[C@]3(O)CC [SN-38] (first compound max 1 µM, 7x7, partner max 0.3 µM)	0.0441	-0.0483	-0.002	0.0321	0.065	0.0381	0.0239	-0.0235	0.0412	0.0411	0.164	-0.0713	0.0686	-0.0098	0.0073	0.0419	-0.0559	0.0663	0.0269	-0.129
C=CCn1c(=O)c2cnc(Nc3ccc(N4CCN(C)CC4)cc3)nc2n1-c1cccc(C(C)(C)O)n1 [AZD1775] + C[C@@H]1COCCN1C2=NC(=NC(=C2)C3(CC3)[S@](=N)(=O)C)C4=C5C=CNC5=NC=C4 [AZD6738] (first compound max 1 µM, partner max 10 µM)	-0.0067	-0.0133	0.0165	-0.0075	0.0125	0.0418	-0.0079	0.0358	-0.0044	0.0195	0.0558	-0.0042	0.0407	-0.0034	0.0233	0.0157	-0.0076	0.0422	0.0526	0.0047
CN(C)CCCOc1ccc(-c2ccc3ncc4c(c3c2)n(C2CCOCC2)c(=O)n4C)cn1 [AZD0156] + O=C(c1cc(Cc2n[nH]c(=O)c3ccccc23)ccc1F)N1CCN(C(=O)C2CC2)CC1 [Olaparib] (first compound max 3 µM, partner max 3 µM)	0.0815	0.0671	-0.0062	-0.0305	0.0333	0.0448	0.0824	0.0829	0.24	0.0005	0.0813	0.016	0.103	-0.0673	0.21	0.0145	0.066	-0.0425	0.0093	0.017
CN(CCO)CC[C@H](CSc1ccccc1)Nc1ccc(S(=O)(=O)NC(=O)c2ccc(N3CCC([C@@H](O)c4ccccc4-c4ccc(Cl)cc4)CC3)cc2)cc1S(=O)(=O)C(F)(F)F [AZD4320] + C1CN(CCC1(C(=O)N[C@@H](CCO)C2=CC=C(C=C2)Cl)N)C3=NC=NC4=C3C=CN4 [Capivasertib] (first compound max 1 µM, 7x7, partner max 3 µM)	-0.032	-0.0637	-0.0613	-0.0438	-0.0764	0.0181	-0.0354	0.0157	-0.0345	-0.0525	-0.0276	-0.0088	0.0027	0.0421	-0.0169	-0.0347	-0.155	-0.0066	0.0224	0.0243
Cn1cnc2c(F)c(Nc3ccc(Br)cc3Cl)c(C(=O)NOCCO)cc21 [Selumetinib] + C=CCn1c(=O)c2cnc(Nc3ccc(N4CCN(C)CC4)cc3)nc2n1-c1cccc(C(C)(C)O)n1 [AZD1775] (first compound max 10 µM, partner max 1 µM)	0.0182	-0.0795	-0.126	-0.0312	-0.0128	-0.0355	0.014	-0.115	0.0165	-0.0923	-0.0201	0.0127	0.0433	-0.0697	-0.0414	-0.0891	0.0279	-0.0351	-0.0826	-0.0275
